How the values were obtained:
Test in all cases: relative viability (nuclei count vs DMSO), 5 days (fraction); higher = more cells survive
[1] = compound: O=C(CCCCCCC(=O)Nc1ccccc1)NO [Vorinostat] + COc1cccc2cc(-c3nc([C@H]4CC[C@H](C(=O)O)CC4)n4ncnc(N)c34)[nH]c12 [OSI-027] (partner 0.5 µM)
Outline: (§1)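 Each reported value is a median over duplicate plates. It expresses relative viability: treated-well nuclei count divided by vehicle-well nuclei count. Lung cancer cell lines in 1536-well plates were dosed by pin tool a day after seeding, alone with one drug or with a fixed anchor-drug dose plus five library-drug doses (not always all listed) in √10 steps, and nuclei were counted after 5 days.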

[2] = compound: O=C(CCCCCCC(=O)Nc1ccccc1)NO [Vorinostat] + Cc1cc(Nc2cc(N3CCN(C)CC3)nc(Sc3ccc(NC(=O)C4CC4)cc3)n2)n[nH]1 [Tozasertib] (partner 0.1 µM)
Outline: as §1

[3] = compound: O=C(CCCCCCC(=O)Nc1ccccc1)NO [Vorinostat] + C[C@]1(O)C[C@@H](c2nc(-c3ccc4ccc(-c5ccccc5)nc4c3)c3c(N)nccn32)C1 [Linsitinib] (partner 1 µM)
Outline: as §1

[4] = compound: O=C(CCCCCCC(=O)Nc1ccccc1)NO [Vorinostat]
Outline: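 Lung cancer cell lines in 1536-well plates were kept overnight at 37 °C, then pinned with five library-drug doses (not always all listed) spaced by √10 on vehicle-anchored plates. After 5 days without medium change, cells were fixed, permeabilised and Hoechst-stained in one step, imaged at 4×, and nuclei were counted with MetaXpress. Viability is treated-well nuclei divided by vehicle-well nuclei, taken as the median over plates. Plates passed only with control CV below 25% and at least one doubling.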

| Cell Line | relative viability ([1]; first compound 0.253 µM) | relative viability ([1]; first compound 0.8 µM) | relative viability ([1]; first compound 2.53 µM) | relative viability ([1]; first compound 8 µM) | relative viability ([2]; first compound 0.253 µM) | relative viability ([2]; first compound 0.8 µM) | relative viability ([2]; first compound 2.53 µM) | relative viability ([2]; first compound 8 µM) | relative viability ([3]; first compound 0.253 µM) | relative viability ([3]; first compound 0.8 µM) | relative viability ([3]; first compound 2.53 µM) | relative viability ([3]; first compound 8 µM) | relative viability ([4]; 0.253 µM) | relative viability ([4]; 0.8 µM) | relative viability ([4]; 1 µM, anchor plate) | relative viability ([4]; 2.53 µM) | relative viability ([4]; 8 µM) |
| --- | --- | --- | --- | --- | --- | --- | --- | --- | --- | --- | --- | --- | --- | --- | --- | --- | --- |
| NCI-H3122 | 1.26 | 1.1 | 0.135 | 0.129 | 0.387 | 0.294 | 0.0525 | 0.0914 | 1.12 | 1.05 | 0.605 | 0.142 | 1.06 | 1.04 | 0.986 | 0.737 | 0.156 |
| PC-3 [JPC-3] | 0.68 | 0.727 | 0.378 | 0.175 | 0.821 | 0.741 | 0.229 | 0.266 | 0.886 | 0.938 | 0.625 | 0.281 | 1.12 | 0.988 | 0.921 | 0.608 | 0.312 |
| PC-14 | 1.13 | 0.832 | 0.0624 | 0.0451 | 0.586 | 0.389 | 0.0619 | 0.018 | 1.01 | 0.911 | 0.323 | 0.112 | 1.25 | 0.886 | 0.725 | 0.171 | 0.051 |
| RERF-LC-KJ | 0.56 | 0.52 | 0.238 | 0.256 | 0.442 | 0.318 | 0.262 | 0.213 | 0.983 | 0.855 | 0.694 | 0.168 | 1.04 | 0.911 | 0.698 | 0.405 | 0.246 |
| SK-LU-1 | 0.407 | 0.377 | 0.204 | 0.116 | 0.303 | 0.186 | 0.143 | 0.101 | 1.11 | 1.02 | 0.64 | 0.211 | 1.19 | 0.924 | 0.781 | 0.668 | 0.19 |
| SK-MES-1 | 0.72 | 0.664 | 0.199 | 0.149 | 0.86 | 0.662 | 0.235 | 0.136 | 1.09 | 1.02 | 0.495 | 0.21 | 1.11 | 1.02 | 1.08 | 0.555 | 0.203 |
| SW 1573 | 1.1 | 0.633 | 0.183 | 0.051 | 0.19 | 0.266 | 0.155 | 0.0644 | 0.986 | 0.978 | 0.421 | 0.13 | 1.25 | 0.938 | 0.84 | 0.485 | 0.0973 |
| UMC-11 | 0.441 | 0.263 | 0.135 | 0.0952 | 0.195 | 0.164 | 0.147 | 0.129 | 1 | 0.6 | 0.164 | 0.0865 | 1.1 | 0.617 | 0.403 | 0.201 | 0.103 |

From the supplement of paper PMC10307832
